Data on six molecules can be found in patent US20210169985A1, “METHODS FOR TREATING GRAM POSITIVE BACTERIAL INFECTION” (INSERM (Institut National de la Santé et de la Recherche …, priority 2018, published 2021).

Entries after “also recorded” stand apart in the source; their conditions may differ. *1 amine or outer side, *2 acyl side, *3 side chain or, on linkers, in order; H or OH if unused. Where a SMILES comes first, the peptide text is derived from it. Bridges are numbered along the chain shown (N, C = ends). Roman numbers before positions name the chains, in order. [ ]: non-standard residue; d: D form. Actinocin(9to1) = Cc1c2oc3c(C)ccc(C(=O)[*:1])c3nc-2c(C(=O)[*:2])c(N)c1=O; NMeV = CN[C@H](C(=O)O)C(C)C; Sar = CNCC(=O)O

The test system of experiment [1] is CXCL1 production in keratinocytes. The experiment in a line: Cytokine quantification in supernatant of murine primary keratinocytes. The format is cell-based. The settings on record: for CXCL1 production by keratinocytes: stimulated 1 or 3 hours vs PBS; for effect of inhibitor on hepcidin-induced CXCL1 production: murine primary keratinocytes with 3.6 μM hepcidin, inhibitor added 30 minutes before (FIG. 2C); for CXCL1 levels in the cell culture supernatant: 3 hours. The protocol:
Keratinocytes were isolated from the skin of 2-day-old WT or Hepc^Δkerat mice, based on modifications from a previously described protocol^8. In brief, dermis were easily separated from epidermis after floating newborn mice skin on freshly thawed cold trypsin 0.25% (thermo fisher 15050065) overnight at 4° C. with the dermis side down. Cells were isolated in stop trypsin medium (DMEM, high glucose, no glutamine, no calcium (thermo fisher 21068028) containing 20% heat inactivated and Chelex (Bio rad 1421253) treated—FBS, 1% GlutaMAXSupplement (thermo fisher 35050061), 1% Sodium Pyruvate (thermo fisher 11360070), 100 U/ml Penicillin, 100 μg/ml Streptomycin (thermo fisher), 2.5 μg/ml Amphotericin B (Gibco)).
Keratinocytes were obtained by epidermis mechanical dissociation through shaking at 350 rpm for 1 hour at 37° C. The resulting cell suspension was filtered through 100 μm filter, centrifuged at 250 g for 10 min at 4° C., plated on fibronectin and bovine collagen I coated tissue culture plate and incubated at 37° C. in a humidified 5% CO2 atmosphere. The cells were cultured in 0.07 mM calcium medium (low Ca^2+) containing EGF (10 ng/ml) and cholera toxin (10^−10 mol/L). Once confluence reached, cells were switched in 1.2 mM calcium medium (high Ca^2+) in order to assure their differentiation. After three days in high Ca′ cells were differentiated and suitable for different experiments.
(§1) Keratinocytes, previously starved of FBS for 1 hour, were treated with 1 or 10 μg/ml hepcidin (Peptide International) and incubated for different time points. In some experiments, inhibitors were added 30 minutes before hepcidin treatment during FBS starving: brefaldin A (sigma B7651), cycloheximide (sigma C7698), actinomycinD (sigma A1410). The cells were lysed with Tri reagent (sigma) while supernatant cytokines were measured with the V-PLEX Proinflammatory Panel1 kit (Meso Scale Discovery), according to the manufacturer's instruction.

In experiment [2] the test system is GAS NZ131. Briefly: GAS growth inhibition (bacteriostatic) assay. It counts as cell-based, Group A Streptococcus. The settings on record: in vitro, overnight growth, hepcidin and LL-37 at the same concentration (FIG. 3A). The protocol: (§2) As previously described, 9 GAS NZ131 were grown in Todd Hewitt Broth (THB, Sigma) plus 0.3% yeast extract to early log phase (absorbance at 600 nm, A600=0,2). Bacteria were then diluted in THB to A600=0,001 (≈2×10^5 colony forming units (c.f.u.) m1-1). This bacterial suspension was kept growing overnight at 37° C. in presence of PBS, LL-37, hepcidin (peptide international) or penicillin G (sigma P7794). For antimicrobial killing kinetics, exponential phase GAS (A600=0,4) was exposed to PBS or LL-37 or hepcidin and incubated at 37° C. At different time point serial dilutions of these bacterial suspensions were plated on THA plate for counting surviving c.f.u.

For experiment [3], the system named is GAS NZ131. The experiment in a line: GAS antimicrobial killing kinetics (bactericidal) assay. The format is cell-based, Group A Streptococcus. The settings on record: added to the culture medium at 4 μg/ml (FIG. 3B; legend says 32 μM). The procedure: as §2
Experiment [4] deals with CXCL1 mRNA. Briefly: CXCL1 mRNA expression by Q-PCR in primary keratinocytes. It counts as cell-based, murine. To be noted: WT primary keratinocytes, 1 and 3 hours, 360 nM or 3.6 μM (FIG. 2B). The procedure: RNA extraction, reverse transcription and quantitative PCR have been performed as previously described {Zumerle, 2014 #46}. All samples were normalized to the threshold cycle value for cyclophilin-A.
as §1

For experiment [5], the system named is GAS. Briefly: Therapeutic treatment in GAS induced necrotizing soft tissue infection model. It counts as in vivo, C57BL6 mice. The procedure:
(§3) A well-established model of necrotizing soft tissue infection was adapted for this study (^7,^9). In brief, 100 μl of a mid logarithmic growth phase (approximately 10^7 c.f.u.) of GAS was mixed with an equal volume of sterile Cytodex beads (Sigma-Aldrich) and injected subcutaneously into the flank of 8- to 12-week-old WT and Hepc^Δkerat14 male littermates, previously shaved (veet hair removal cream). Weight loss and lesion size of mice were daily estimated. After 96 hours mice were sacrificed, skin necrotic ulcers, spleen, and blood (via retro orbital bleeding) were recovered and homogenized in 1:2 mg/μl of sterile PBS. Serial dilutions of tissue homogenate were stretched on THA plates, in order to enumerate living c.f.u.
For therapeutic treatment C57BL6 mice were infected as described above. One day after infection, animals were subcutaneously injected with PBS (control) or 1 μg of hepcidin (peptide international). Mice were treated again at 48 and 72 hours with 500 ng of hepc-25. After 96 hours mice were sacrificed, spleens were taken, homogenized for c.f.u. enumeration.

Experiment [6] concerns GAS. Briefly: CXCL1 rescue experiment in GAS-infected Hepc Δkerat mice. The settings on record: subcutaneous 1 μg/mouse daily, four days after GAS injection. The format is in vivo. The protocol: as §3
For rescue experiment WT and Hepc^Δkerat littermates were subcutaneously infected with 10^7 c.f.u. of GAS with mock or 1 μg/mouse of rCXCL1 (R&D system, 1395-KC-025/CF). Mice were intralesionally injected again at 24, 48 and 72 h with mock or 1 μg of rCXCL1.

Take “mini-hepcidin: murine mini-hepcidin consisting in the 9 N-terminal amino acids of hepcidin (DTNFPICIF; Hepcidin; UniProt Q9EQ21 59-67, looked up, fragment) [reference compound]”: the “CXCL1 production by keratinocytes” value is recorded as “not able to trigger CXCL1 production” in experiment [1] (murine primary keratinocytes) and “does bot promote CXCL1 production” in experiment [1] (murine primary keratinocytes, listed as Mini-hepcidin).
In the case of `Cc1c2oc3c(C)ccc(C(=O)N[C@@H]4C(=O)N[C@H](C(C)C)C(=O)N5CCC[C@H]5C(=O)N(C)CC(=O)N(C)[C@@H](C(C)C)C(=O)O[C@@H]4C)c3nc-2c(C(=O)N[C@@H]2C(=O)N[C@H](C(C)C)C(=O)N3CCC[C@H]3C(=O)N(C)CC(=O)N(C)[C@@H](C(C)C)C(=O)O[C@@H]2C)c(N)c1=O` [actinomycin D, actinomycinD, reference compound] (I: T[dV]P[Sar][NMeV] / II: T[dV]P[Sar][NMeV]; ester I:1-I:C, II:1-II:C; linker I:N-II:N via Actinocin(9to1)), the “effect of inhibitor on hepcidin-induced CXCL1 production” value in experiment [1] is “not”.
Take LL-37 [reference compound]: the “bacteriostatic effect against GAS (inhibition of GAS growth)” value in experiment [2] is recorded as “able to prevent the growth of the bacteria”. Besides, in experiment [3], the “bactericidal activity against GAS (bacterial titers vs control)” value is given as “significant reduction in bacterial titers”.
As to `C[C@@H]1C[C@@H]([C@H](O)CC2CC(=O)NC(=O)C2)C(=O)[C@@H](C)C1` [Cycloheximide, cycloheximide, reference compound], in experiment [1], the “effect of inhibitor on hepcidin-induced CXCL1 production” value was “significantly reduced”.
Consider “hepcidin: mature 25-amino acid form of hepcidin (hepc-25), obtained from Peptide International”, for which the “bacteriostatic effect against GAS (inhibition of GAS growth)” value in experiment [2] is recorded as “no antimicrobial activity; also recorded: no direct bacteriostatic effect”. In addition, the “bactericidal activity against GAS (bacterial titers vs control)” value in experiment [3] is listed as “no effect”. Further, the “production of other tested inflammatory cytokines” value in experiment [1] (murine primary keratinocytes, 360 nM and 3.6 μM hepcidin) is listed as “not”. Moreover, the “CXCL1 levels in the cell culture supernatant” value in experiment [1] (murine primary keratinocytes, 360 nM) was 150 pg/mL; in experiment [1] (murine primary keratinocytes, 3.6 μM) it was 50 pg/mL. The “CXCL1 production by keratinocytes” value in experiment [1] (murine primary keratinocytes) is recorded as “dose dependent increase”. Further, the “CXCL1 expression at the mRNA level” value in experiment [4] is given as “did not increase”. In experiment [5] (GAS-infected mice, 96 hours after infection, all control mice disseminated), the “treated mice with no systemic bacterial dissemination (bacteria in the spleen)” value is on record as 7 out of 9. In addition, in experiment [5] (GAS-infected mice, sc 1 μg at 24 h then 500 ng at 48 and 72 h, 96 hours, vs mock), the “weight (marker of morbidity)” value is listed as “did not loose weight”. For the same molecule, the “signs of morbidity (rough hair coat, hunched posture)” value in experiment [5] (GAS-infected mice, sc 1 μg at 24 h then 500 ng at 48 and 72 h, vs mock) was “didn't present any signs of morbidity”. Besides, in experiment [5] (local injection at the site of infection (FIG. 2F)), the “systemic spread of infection” value is recorded as “prevents systemic spread of infection”.

B1: CXCL1: rCXCL1 (R&D system, 1395-KC-025/CF), key neutrophil chemokine (protein, UniProt P12850 25-96, looked up)
Growth-regulated alpha protein: APIANELRCQCLQTMAGIHLKNIQSLKVLPSGPHCTQTEVIATLKNGREACLDPEAPLVQKIVQKMLKGVPK
With B1, the “number of bacteria in skin of Hepc Δkerat mice” value in experiment [6] is given as “decreased the number of bacteria at the level of WT mice”.
